According to paper doi:10.1101/390401v1, “Flux balance analysis predicts NADP phosphatase and NADH kinase are critical to balancing redox during xylose fermentation in Scheffersomyces stipitis” (biorxiv, 2018):

Target: T1, K. phaffii Adh2p (Komagataella pastoris, UniProt A0A1B2JBQ8)
T1 construct: gene ADH2; purified natively from wild-type K. phaffii; 40 kDa band
T1 sequence (A0A1B2JBQ8 1-350): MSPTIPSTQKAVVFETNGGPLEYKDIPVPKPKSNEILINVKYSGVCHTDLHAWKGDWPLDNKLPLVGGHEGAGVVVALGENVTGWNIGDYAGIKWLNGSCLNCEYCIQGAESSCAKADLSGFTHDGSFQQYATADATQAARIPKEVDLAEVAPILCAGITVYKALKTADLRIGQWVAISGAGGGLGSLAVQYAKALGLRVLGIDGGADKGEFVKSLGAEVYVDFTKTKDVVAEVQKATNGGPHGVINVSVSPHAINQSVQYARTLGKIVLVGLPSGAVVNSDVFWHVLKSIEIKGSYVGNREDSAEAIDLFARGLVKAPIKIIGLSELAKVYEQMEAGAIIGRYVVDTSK
Test: NADH and NADPH oxidation at […] nm
Type: biochemical
Conditions: 0.01-10 mM butyraldehyde, NADH or NADPH, 1 mM ZnCl2, 50 mM HEPES pH 7.5, 30 C

NC(=O)C1=CN([C@@H]2O[C@H](COP(=O)(O)OP(=O)(O)OC[C@H]3O[C@@H](n4cnc5c(N)ncnc54)[C@H](O)[C@@H]3O)[C@@H](O)[C@H]2O)C=CC1 [NADH]
NADH and NADPH oxidation at 340 nm: Both NADH and NADPH reduced butyraldehyde

CCCC=O [butyraldehyde]
NADH and NADPH oxidation at 340 nm: Both NADH and NADPH reduced butyraldehyde
